Test results as given in US20090074766A1, “Methods of inhibiting HIV-2 infection” (priority 2007, published 2009).
Like-named read-outs stand apart in the source and are kept apart here.

Tested on: reporter viruses pseudotyped with HIV-1JR-FL envelope
Format: cell-based
Design: CI90: unit not given beside the values
Conditions: for CI50 / CI90: envelope JRFL; for IC90 / IC50: 1st inhibitor alone, HIV-1 envelope JRFL
Text: HIV-1 pseudoparticles (HIV-1pp) are generated in 293T cells by transient coexpression of an HIV-1-based NL4/3luc+env− plasmid and a construct encoding HIV-1JRFL Env. The NL4/3luc+env− plasmid was obtained from the NIH AIDS Research and Reference Reagent Program (Cat. No. 3418), and the HIV-1JRFL Env was inserted into the pcDNA3.1 vector (Invitrogen). Briefly, 293T cells are calcium phosphate transfected with a 1:1 ratio of NL4/3luc+env− reporter vector and Env expression vector in Hepes buffer (Profection Mammalian Transfection Kit, Promega). After 16 h the transfection medium is aspirated and fresh cell culture medium (DMEM with 10% FBS, glutamine and antibiotics) is added and the incubation is continued at 37° C. for an additional 24-32 h. Cell culture supernatants are collected 48 h post-transfection and centrifuged at 1,400 rpm for 10 min to pellet cell debris. The viral supernatant is brought to a final concentration of 5% sucrose and stored aliquoted at −80° C.
U87-CD4-CCR5 cells were obtained from the NIH AIDS Research and Reference Program (Cat. No. 4035). These cells are maintained in culture medium (DMEM with 10% FBS, antibiotics and glutamine) containing 0.3 mg/ml G418 and 0.5 mg/ml puromycin. Cells are grown in T175-cm^2 flasks at 37° C. and diluted 1:5 every 3-4 days. For assay plate preparation, cells are trypsinized and seeded into wells of 96-well tissue-culture treated flat bottom opaque polystyrene plates (Perkin Elmer, Boston, Mass.) at a density of 3×10^3 cells/well. Plates are incubated for no more than 4 h at 37° C. in a humidified 5% CO2 incubator prior to their use in the HIV-1 pp susceptibility assay.
Fifty μl of diluted compound at 4× the desired final concentration are added per well. For compounds solubilized in DMSO, the 4× stock will contain 2% DMSO (such that the final DMSO concentration in the assay is always 0.5% for small molecules). Control wells receiving no compound are included on each plate. In addition, an AZT inhibition control is included in each assay. Compounds are tested individually and at a fixed mass or molar ratio over a broad range of concentrations.
A vial of frozen, aliquoted HIV-1pp is thawed in a 37° C. waterbath and then placed on wet ice. Virus is diluted in cold cell culture medium as necessary to achieve the desired final virus concentration in the HIV-1pp assay (about 10,000 relative light units (rlu) per well). 50 μl of diluted virus are added per well, bringing the final well volume to 200 μl. A no-virus control (minimum or background luminescence) and a no-compound control (maximum luminescence) are included on each plate. The plates are incubated for 72 h at 37° C. in a humidified 5% CO2 incubator followed by processing for luciferase signal (see below).
Assay medium is aspirated and 200 μl of PBS are added to each well. […] Assay plates are then frozen for at least 2 h at −80° C. followed by thawing at room temperature and vigorous mixing with an electronic pipettor. 25 μl from each well are transferred to an opaque 96-well plate (Costar #3922). Four replicates are pooled into the same well on the opaque plate. 100 μl of freshly thawed and reconstituted luciferase substrate (Luciferase Assay System, Promega—Cat. No. E1501) are added to each well of the plate with the electronic pipettor, and luminescence is detected immediately on a Dynex MLX plate reader set to medium gain.
The percent inhibition is derived as follows: [1−(luciferase activity in the presence of drug/luciferase activity in the absence of drug)]×100. IC50 values are determined by fitting the inhibition data with a non-linear, four-parameter, variable slope equation (GraphPad Prism, ver. 4.02; GraphPad Software, San Diego, Calif.). Upper and lower inhibition values are constrained to 100% and 0%, respectively for curve fitting. […]

[1] = labelled 1st inhibitor with 2nd inhibitor PRO 140, equimolar (1:10 PRO 140 to zidovudine or nevirapine)

Molecule | CI50 [1] | CI90 [1] | IC90 (read-out: IC90) | IC50 | IC90 | CI90 (labelled 1st inhibitor with 2nd inhibitor SCH-D) | IC50 (read-out: IC50)
COc1ccnc2[nH]cc(C(=O)C(=O)N3CCN(C(=O)c4ccccc4)C[C@H]3C)c12 [BMS-378806, (R)-N-(benzoyl)-3-methyl-N′-[(4-methoxy-7-azaindol-3-yl)-oxoacetyl]-piperazine] | 1.2 ± 0.38 | 0.74 ± 0.23 | – | – | – | – | –
COC[C@@H](c1ccc(C(F)(F)F)cc1)N1CCN(C2(C)CCN(C(=O)c3c(C)ncnc3C)CC2)C[C@@H]1C [SCH-D, 1-[(4,6-dimethyl-5-pyrimidinyl)carbonyl]-4-[4-[2-methoxy-1(R)-4-(trifluoromethyl)phenyl]ethyl-3(S)-methyl-1-piperazinyl]-4-methylpiperidine] | – | – | 44 nM | – | – | – | –
Cc1nnc(C(C)C)n1C1CC2CCC(C1)N2CC[C@H](NC(=O)C1CCC(F)(F)CC1)c1ccccc1 (stereo partly shown) [UK-427,857] | – | – | – | 7.4 nM | 46 nM | 1.2 ± 0.15 | –
PRO 140: humanized IgG4,κ anti-CCR5 monoclonal antibody, humanized version of murine mAb PA14 (antibody, chains of the INN, looked up, V domains shown) VH: EVQLVESGGGLVKPGGSLRLSCAASGYTFSNYWIGWVRQAPGKGLEWIGDIYPGGNYIRNNEKFKDKTTLSADTSKNTAYLQMNSLKTEDTAVYYCGSSFGSNYVFAWFTYWGQGTLVTVSS VL: DIVMTQSPLSLPVTPGEPASISCRSSQRLLSSYGHTYLHWYLQKPGQSPQLLIYEVSNRFSGVPDRFSGSGSGTDFTLKISRVEAEDVGVYYCSQSTHVPLTFGQGTKVEIK | 1.2 ± 0.32 | 0.90 ± 0.15 | 28 nM | – | – | – | 2.2 nM
